Results on nine compounds are retold here after ChEMBL document CHEMBL3044963, “Synthesis and in vitro anticancer activity of novel thiazacridine derivatives” (Med Chem Res, 2013).

Values after ≈ are worked out from the molar mass of the structure shown.

Experiment [1] relates to SF-295. In words: Anticancer activity against Homo sapiens (human) SF295 cells assessed as growth inhibition at 0.3 ug/ml after 72 hr by MTT assay. It is filed as functional. The conditions noted are these: SF-295, 72 h, read-out: GI.
Experiment [2] relates to HCT-8. In words: Anticancer activity against Homo sapiens (human) HCT8 cells assessed as growth inhibition at 0.3 ug/ml after 72 hr by MTT assay. It is filed as functional. The conditions noted are these: HCT-8, 72 h, read-out: GI. (Tetrazolium dyes change colour on reduction, which living cells bring about.)
The test system of experiment [3] is MDA-MB-435. In words: Anticancer activity against Homo sapiens (human) MDA-MB-435 cells assessed as inhibition of cell survival after 72 hr by MTT assay. The note with it: MDA-MB-435, 72 h. It is filed as functional, cell-based.
Experiment [4] relates to MDA-MB-435. In words: Anticancer activity against Homo sapiens (human) MDA-MB-435 cells assessed as growth inhibition at 0.3 ug/ml after 72 hr by MTT assay. It is filed as functional. The note with it: MDA-MB-435, 72 h, read-out: GI.
The test system of experiment [5] is SF-295. In words: Anticancer activity against Homo sapiens (human) SF295 cells assessed as inhibition of cell survival after 72 hr by MTT assay. The note with it: SF-295, 72 h. It is filed as functional, cell-based.
Experiment [6] deals with SF-295. In words: Anticancer activity against Homo sapiens (human) SF295 cells assessed as growth inhibition at 25 ug/ml after 72 hr by MTT assay. It is filed as functional. The note with it: SF-295, 72 h, read-out: GI.
The test system of experiment [7] is MDA-MB-435. In words: Anticancer activity against Homo sapiens (human) MDA-MB-435 cells assessed as growth inhibition at 25 ug/ml after 72 hr by MTT assay. It is filed as functional. The note with it: MDA-MB-435, 72 h, read-out: GI.
The test system of experiment [8] is HL-60. In words: Anticancer activity against Homo sapiens (human) HL60 cells assessed as inhibition of cell survival after 72 hr by MTT assay. It is filed as functional, cell-based. The conditions noted are these: HL-60, 72 h.
For experiment [9], the system named is HCT-8. In words: Anticancer activity against Homo sapiens (human) HCT8 cells assessed as growth inhibition at 25 ug/ml after 72 hr by MTT assay. It is filed as functional. The conditions noted are these: HCT-8, 72 h, read-out: GI.
The subject of experiment [10] is HCT-8. In words: Anticancer activity against Homo sapiens (human) HCT8 cells assessed as inhibition of cell survival after 72 hr by MTT assay. It is filed as functional, cell-based. The note with it: HCT-8, 72 h.

What is called IC50 is the concentration needed to halve the response being measured. Take `COc1cccc2c1C(=O)c1c(O)c3c(c(O)c1C2=O)C[C@@](O)(C(=O)CO)C[C@@H]3O[C@H]1C[C@H](N)[C@H](O)[C@H](C)O1` [DOXORUBICIN]: the figures for the inhibition of growth at 0.3 µg/mL in experiment [1], in experiment [2] and in experiment [4] were 91.1%, 95.2% and 93.6%, respectively. Moreover, the IC50 in [3] is 0.24 µg/mL (≈ 0.442 µM); in [5], 0.48 µg/mL (≈ 0.883 µM).

`Cc1ccc(/C=C2\SC(=O)N(Cc3c4ccccc4nc4ccccc34)C2=O)cc1`: the inhibition of growth at 25 µg/mL in experiment [6] stood at 29.9%; in experiment [7], 31.2%; in experiment [9] it was 51.3%. The IC50 in experiment [8], in [3], in experiment [10] and in experiment [5] was greater than 25 µg/mL each time.

In the case of `O=C1S/C(=C\c2c3ccccc3nc3ccccc23)C(=O)N1Cc1c2ccccc2nc2ccccc12`, the inhibition of growth at 25 µg/mL was determined as 76.7% in experiment [6], 95.9% in [7] and 92.4% in [9]. For the same compound, the 50% inhibitory concentration (IC50) is greater than 25 µg/mL in [8], 7.01 µg/mL (≈ 14.1 µM) in experiment [3], 4.45 µg/mL (≈ 8.94 µM) in experiment [10] and 4.44 µg/mL (≈ 8.92 µM) in experiment [5].

Regarding `O=C1CSC(=O)N1Cc1c2ccccc2nc2ccccc12`, the inhibition of growth at 25 µg/mL in experiment [6] worked out at 32.8%; in [7] it was 0%; in experiment [9], 42%. Further, the IC50 in [8], in experiment [3], in experiment [10] and in experiment [5] was greater than 25 µg/mL throughout.

In the case of `CS(=O)(=O)c1ccc(/C=C2\SC(=O)N(Cc3c4ccccc4nc4ccccc34)C2=O)cc1`, the inhibition of growth at 25 µg/mL in [6] was 44.3%; in experiment [7] it was 12.9%; in experiment [9], 64.3%. Besides, the IC50 in experiment [8], in experiment [3], in [10] and in [5] was greater than 25 µg/mL throughout.

As for `COc1ccc(/C=C2\SC(=O)N(Cc3c4ccccc4nc4ccccc34)C2=O)cc1Br`, the inhibition of growth at 25 µg/mL worked out at 48% in experiment [6], 53% in experiment [7] and 72.5% in experiment [9]. Besides, the IC50 in [8], in experiment [3], in [10] and in [5] was greater than 25 µg/mL in each case.

On to `COc1ccc(/C=C2\SC(=O)N(Cc3c4ccccc4nc4ccccc34)C2=O)cc1`, for which the figures for the inhibition of growth at 25 µg/mL in experiment [6], in experiment [7] and in experiment [9] were 59.5%, 84.2% and 86.7%, respectively. Also, the IC50 in experiment [8] is greater than 25 µg/mL; in experiment [3], greater than 25 µg/mL; in experiment [10] it was 19.3 µg/mL (≈ 45.2 µM); in experiment [5], greater than 25 µg/mL.

On to `O=C1S/C(=C\c2ccc(Br)cc2)C(=O)N1Cc1c2ccccc2nc2ccccc12`, for which the figures for the inhibition of growth at 25 µg/mL in experiment [6], in [7] and in experiment [9] were 62.2%, 85.3% and 96.6%, respectively. Also, the IC50 in experiment [8] is 19.5 µg/mL (≈ 41 µM); in experiment [3], greater than 25 µg/mL; in experiment [10], 20.6 µg/mL (≈ 43.4 µM); in experiment [5] it was greater than 25 µg/mL.

Consider `O=C1S/C(=C\c2ccc(Cl)cc2)C(=O)N1Cc1c2ccccc2nc2ccccc12`, for which the inhibition of growth at 25 µg/mL in experiment [6] was found to be 31.3%; in [7] it was 0%; in experiment [9] it was 37.8%. The IC50 in experiment [8], in [3], in experiment [10] and in [5] was greater than 25 µg/mL each time.
